Experimental data taken from patent US20090275583A1, “ANTIVIRAL COMPOUNDS AND USE THEREOF” (Myriad Genetics, Incorporated, priority 2006, published 2009).
Like-named read-outs stand apart in the source and are kept apart here.

Legend:
[1] = tested on: HIV-1 laboratory strain, NL4-3; assay: MT-4 cytoprotection assay; type: cell-based
Summary of the method: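 MT-4 cells mock- or batch-infected with NL4-3 (MOI 0.0005) for 2 h, washed, then cultured 4 days with increasing compound concentrations. Viability read by WST-1 tetrazolium reduction: cytoprotection in infected cells, toxicity in mock-infected cells.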

HIV-1NL4-3 = assay: P4-MAGI assay; type: cell-based
Summary of the method: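 HeLa-derived CD4+ P4 cells carrying an LTR-driven lacZ were infected with HIV-1NL4-3 at MOI 1 with DEAE-Dextran, then compound added in increasing concentrations right after virus; infection reported as Tat-induced β-galactosidase. TC50 measured by WST-1 in mock-infected cells.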

[2] = Human immunodeficiency virus 1, NL43, MT4, 96 h, MT-4 cells, four days incubation, WST-1 readout, read-out: MT4 EC50
[3] = Human immunodeficiency virus 1, NL43, less than about 100 nm, read-out: MT-4 assay EC50 (concentration of compound that reduces the virus induced cytopathic effect by 50%)
[4] = Human immunodeficiency virus 1, 24 h, P4 cells, 24 hour incubation, β-galactosidase expression, read-out: P4-MAGI IC50
[5] = Human immunodeficiency virus 1, text statement, less than about 100 nm, read-out: P4-MAGI assay IC50

Row | SMILES | EC50 [1, 2] [nM] | EC50 [1, 3] [nM] | IC50 (HIV-1NL4-3; [4]) [nM] | IC50 (HIV-1NL4-3; [5]) [nM]
1 | C=C(C)[C@@H]1CC[C@]2(C(=O)NCCc3cccc(C(=O)NCc4ccc(C(=O)NCCN5CCOCC5)cc4)c3)CC[C@]3(C)C(CCC4[C@@]5(C)CC[C@H](O)C(C)(C)C5CC[C@]43C)C12 (stereo partly drawn) [Example 136] | 14.1 | < 100 | 11.6 | < 100
2 | C=C(C)[C@@H]1CC[C@]2(C(=O)NCCc3cccc(C(=O)NCc4ccc(C#N)cn4)c3)CC[C@]3(C)C(CCC4[C@@]5(C)CC[C@H](O)C(C)(C)C5CC[C@]43C)C12 (stereo partly drawn) [Example 252] | 14 |  | 25 | 
3 | C=C(C)[C@@H]1CC[C@]2(C(=O)NCCc3ccc(C)c(C(=O)NCc4ccc(C(=O)O)cc4)c3)CC[C@]3(C)C(CCC4[C@@]5(C)CC[C@H](O)C(C)(C)C5CC[C@]43C)C12 (stereo partly drawn) [Example 274] | 4320 |  | 84.5 | 
4 | C=C(C)[C@@H]1CC[C@]2(C(=O)NCCc3cccc(C(=O)NCc4ccc(N)cn4)c3)CC[C@]3(C)C(CCC4[C@@]5(C)CC[C@H](O)C(C)(C)C5CC[C@]43C)[C@@H]12 (stereo partly drawn) [Example 149] | 88 |  | 23 | 
5 | C=C(C)[C@@H]1CC[C@]2(C(=O)NCc3cc(C(=O)NCc4cccc(C(=O)O)c4F)ccc3F)CC[C@]3(C)C(CCC4[C@@]5(C)CC[C@H](O)C(C)(C)C5CC[C@]43C)C12 (stereo partly drawn) [Example 186] | 830 |  | 120 | 
6 | C=C(C)[C@@H]1CC[C@]2(C(=O)NCCc3cccc(C(=O)NCc4ccc(C(=O)N[C@H](CCC(=O)OC)C(=O)OC)cn4)c3)CC[C@]3(C)C(CCC4[C@@]5(C)CC[C@H](O)C(C)(C)C5CC[C@]43C)C12 (stereo partly drawn) [Example 223] | 21 |  | 21.7 | 
7 | C=C(C)[C@@H]1CC[C@]2(C(=O)NCc3cc(C(=O)NCCc4ccc(C(=O)O)cc4)ccc3F)CC[C@]3(C)C(CCC4[C@@]5(C)CC[C@H](O)C(C)(C)C5CC[C@]43C)C12 (stereo partly drawn) [Example 95] | 1.5 | < 100 | 11.2 | < 100
8 | C=C(C)[C@@H]1CC[C@]2(C(=O)NCc3cccc(C(=O)NCc4ccc(C(=O)O)cc4F)c3)CC[C@]3(C)C(CCC4[C@@]5(C)CC[C@H](O)C(C)(C)C5CC[C@]43C)C12 (stereo partly drawn) [Example 22] | 9.7 | < 100 | 15.4 | 
9 | C=C(C)[C@@H]1CC[C@]2(C(=O)NCCc3cccc(C(=O)NCc4ccc(C(=O)NCCN(C)C)cc4)c3)CC[C@]3(C)C(CCC4[C@@]5(C)CC[C@H](O)C(C)(C)C5CC[C@]43C)C12 (stereo partly drawn) [Example 135] | 533 |  | 70 | < 100
10 | C=C(C)[C@@H]1CC[C@]2(C(=O)NCc3cc(C(=O)NCc4cccc(C(=O)OC)c4)ccc3F)CC[C@]3(C)C(CCC4[C@@]5(C)CC[C@H](O)C(C)(C)C5CC[C@]43C)C12 (stereo partly drawn) [Example 102] | 0.6 | < 100 | 22 | < 100
11 | C=C(C)[C@@H]1CC[C@]2(C(=O)NCc3cccc(C(=O)NCc4ccc(C(=O)OC)s4)c3)CC[C@]3(C)C(CCC4[C@@]5(C)CC[C@H](O)C(C)(C)C5CC[C@]43C)C12 (stereo partly drawn) [Example 29] | 18 | < 100 | 37.9 | < 100
12 | C=C(C)[C@@H]1CC[C@]2(C(=O)NCCc3cccc(C(=O)NCc4ccc(C(=O)NC(Cc5c[nH]cn5)C(=O)O)cc4)c3)CC[C@]3(C)C(CCC4[C@@]5(C)CC[C@H](O)C(C)(C)C5CC[C@]43C)C12 (stereo partly drawn) [Example 184] | 830 |  | 104 | 
13 | C=C(C)[C@@H]1CC[C@]2(C(=O)NCCc3cccc(C(=O)NCC(N)=O)c3)CC[C@]3(C)C(CCC4[C@@]5(C)CC[C@H](O)C(C)(C)C5CC[C@]43C)C12 (stereo partly drawn) [Example 72] | 10000 |  | 194 | 
14 | C=C(C)[C@@H]1CC[C@]2(C(=O)NCCc3cccc(C(=O)NCc4cccc(C(=O)OC)c4F)c3)CC[C@]3(C)C(CCC4[C@@]5(C)CC[C@H](O)C(C)(C)C5CC[C@]43C)C12 (stereo partly drawn) [Example 74] | 0.8 | < 100 | 27.6 | < 100
15 | C=C(C)[C@@H]1CC[C@]2(C(=O)NCCc3cccc(C(=O)NCc4ccc(C(=O)N[C@@H](CCC(=O)O)C(=O)O)cc4)c3)CC[C@]3(C)C(CCC4[C@@]5(C)CC[C@H](O)C(C)(C)C5CC[C@]43C)C12 (stereo partly drawn) [Example 133] | 84 | < 100 | 34 | < 100
16 | C=C(C)[C@@H]1CC[C@]2(C(=O)NCCc3cccc(C(=O)NCc4cccc(C(=O)O)c4F)c3)CC[C@]3(C)C(CCC4[C@@]5(C)CC[C@H](O)C(C)(C)C5CC[C@]43C)C12 (stereo partly drawn) [Example 73] | 1.5 | < 100 | 16.2 | < 100
17 | C=C(C)[C@@H]1CC[C@]2(C(=O)NCc3cccc(C(=O)NCCc4ccc(C(=O)O)cc4F)c3)CC[C@]3(C)C(CCC4[C@@]5(C)CC[C@H](O)C(C)(C)C5CC[C@]43C)C12 (stereo partly drawn) [Example 43] | 9.3 | < 100 | 16.8 | < 100

Row | SMILES | EC50 [1, 2] [nM] | EC50 [1, 3] [nM] | IC50 (HIV-1NL4-3; [4]) [nM] | IC50 (HIV-1NL4-3; [5]) [nM]
18 | C=C(C)[C@@H]1CC[C@]2(C(=O)NCCc3cccc(C(=O)NCCc4ccc(C(=O)O)cc4F)c3)CC[C@]3(C)C(CCC4[C@@]5(C)CC[C@H](O)C(C)(C)C5CC[C@]43C)C12 (stereo partly drawn) [Example 75] | 1.4 | < 100 | 36.3 | < 100
19 | C=C(C)[C@@H]1CC[C@]2(C(=O)NCCc3cccc(C(=O)NCc4ccc(C(=O)N[C@H](Cc5ccc(O)cc5)C(=O)O)cc4)c3)CC[C@]3(C)C(CCC4[C@@]5(C)CC[C@H](O)C(C)(C)C5CC[C@]43C)C12 (stereo partly drawn) [Example 164] | 7 |  | 7 | 
20 | C=C(C)[C@@H]1CC[C@]2(C(=O)NCc3ccc(F)c(C(=O)NCCc4cccc(C(=O)O)c4)c3)CC[C@]3(C)C(CCC4[C@@]5(C)CC[C@H](O)C(C)(C)C5CC[C@]43C)C12 (stereo partly drawn) [Example 105] | 8.5 | < 100 | 62.1 | < 100
21 | C=C(C)[C@@H]1CC[C@]2(C(=O)NCCc3ccc(C)c(C(=O)NCc4ccc(C(=O)O)cn4)c3)CC[C@]3(C)C(CCC4[C@@]5(C)CC[C@H](O)C(C)(C)C5CC[C@]43C)C12 (stereo partly drawn) [Example 273] | 1860 |  | 127 | 
22 | C=C(C)[C@@H]1CC[C@]2(C(=O)NCCc3cccc(C(=O)NCCc4ccc(C(=O)O)cc4)c3)CC[C@]3(C)C(CCC4[C@@]5(C)CC[C@H](O)C(C)(C)C5CC[C@]43C)C12 (stereo partly drawn) [Example 68] | 64 | < 100 | 15.2 | < 100
23 | C=C(C)[C@@H]1CC[C@]2(C(=O)NCCc3cccc(C(=O)NCc4ccc(OCCCN5CCN(S(=O)(=O)CC)CC5)c(C(=O)O)c4)c3)CC[C@]3(C)C(CCC4[C@@]5(C)CC[C@H](O)C(C)(C)C5CC[C@]43C)C12 (stereo partly drawn) [Example 243] | 26 |  | 17.5 | 
24 | C=C(COC)[C@@H]1CC[C@]2(C(=O)NCCc3cccc(C(=O)NCc4ccc(C(=O)O)cn4)c3)CC[C@]3(C)C(CCC4[C@@]5(C)CC[C@H](O)C(C)(C)C5CC[C@]43C)C12 (stereo partly drawn) [Example 266] | 24 |  | 8.3 | 
25 | C=C(C)[C@@H]1CC[C@]2(C(=O)NCCc3cccc(C(=O)NCc4ccc(OCCCn5ccnc5)cc4)c3)CC[C@]3(C)C(CCC4[C@@]5(C)CC[C@H](O)C(C)(C)C5CC[C@]43C)C12 (stereo partly drawn) [Example 231] | 18.5 |  | 14.2 | 
26 | C=C(C)[C@@H]1CC[C@]2(C(=O)NCCc3cccc(C(=O)NCCc4ccc(O)cc4)c3)CC[C@]3(C)C(CCC4[C@@]5(C)CC[C@H](O)C(C)(C)C5CC[C@]43C)C12 (stereo partly drawn) [Example 147] | 30 |  | 26.6 | 
27 | C=C(C)[C@@H]1CC[C@]2(C(=O)NCCc3cccc(C(=O)NCC(O)CO)c3)CC[C@]3(C)C(CCC4[C@@]5(C)CC[C@H](O)C(C)(C)C5CC[C@]43C)C12 (stereo partly drawn) [Example 256] | 204 |  | 50.5 | 
28 | C=C(C)[C@@H]1CC[C@]2(C(=O)NCCc3cccc(C(=O)NCc4ccc(C(=O)NCCC5CCCN5C)cc4)c3)CC[C@]3(C)C(CCC4[C@@]5(C)CC[C@H](O)C(C)(C)C5CC[C@]43C)C12 (stereo partly drawn) [Example 171] | 11 |  | 50 | 
29 | C=C(CSCCO)[C@@H]1CC[C@]2(C(=O)NCCc3cccc(C(=O)NCc4ccc(C(=O)O)cn4)c3)CC[C@]3(C)C(CCC4[C@@]5(C)CC[C@H](O)C(C)(C)C5CC[C@]43C)C12 (stereo partly drawn) [Example 267] | 46 |  | 17.3 | 
30 | C=C(C)[C@@H]1CC[C@]2(C(=O)NCCc3cccc(C(=O)NCc4ccc(C(=O)O)o4)c3)CC[C@]3(C)C(CCC4[C@@]5(C)CC[C@H](O)C(C)(C)C5CC[C@]43C)C12 (stereo partly drawn) [Example 156] | 8 |  | 51 | 
31 | C=C(C)[C@@H]1CC[C@]2(C(=O)NCCc3cccc(C(=O)NCC(=O)OCC)c3)CC[C@]3(C)C(CCC4[C@@]5(C)CC[C@H](O)C(C)(C)C5CC[C@]43C)C12 (stereo partly drawn) [Example 62] | 230 |  | 40.4 | < 100
32 | C=C(C)[C@@H]1CC[C@]2(C(=O)NCCc3cccc(C(=O)NCc4ccccn4)c3)CC[C@]3(C)C(CCC4[C@@]5(C)CC[C@H](O)C(C)(C)C5CC[C@]43C)C12 (stereo partly drawn) [Example 150] | 122 |  | 24 | 
33 | C=C(C)[C@@H]1CC[C@]2(C(=O)NCCc3cccc(C(=O)NCC4COC(C(=O)O)CO4)c3)CC[C@]3(C)C(CCC4[C@@]5(C)CC[C@H](O)C(C)(C)C5CC[C@]43C)C12 (stereo partly drawn) [Example 257] | 328 |  | 54 | 
34 | C=C(C)[C@@H]1CC[C@]2(C(=O)NCCc3cccc(C(=O)NCc4ccccc4OC)c3)CC[C@]3(C)C(CCC4[C@@]5(C)CC[C@H](O)C(C)(C)C5CC[C@]43C)C12 (stereo partly drawn) [Example 200] | 759 |  | 76.3 | 
